Experimental data from patent US10946099B2, “Compositions for photodynamic therapy and fluorescence diagnosis of cancers and other diseases” (VISION GLOBAL HOLDINGS LIMITED, priority 2017, dated 2021).

Columns and labels:
[1] = test system: HCT116 cells; assay: Intracellular ROS generation (cellrox reagent); format: cell-based
Description: To examine intracellular ROS generation by PpIX and PpIX-TF conjugate (TF01), HCT116 cells were seeded in 24-well, glass-bottomed plate and incubated with cellrox reagent (Thermo Fisher Scientific). After 30 min, the cells were washed three times by PBS and treated with PpIX or PpIX-TF conjugate (TF01). After 24 h of incubation, the cells were washed twice with PBS and then exposed to a 10 mW/cm^2 using a 635-nm laser source for 30 min. After irradiation, the fluorescence intensity of cells was measured by a microplate reader with excitation/emission at 485/520 nm. The values are expressed as fluorescence intensity ratio to control.

[2] = Fluorescence emission spectroscopy; format: physicochemical
From the text: A BMG fluostar spectrofluorophotometer was used to record fluorescent emissions of PpIX or PpIX-TF conjugate (referred to herein as TF01) suspended in aqueous buffer. A UV-vis spectrophotometer was used to record the absorbance spectra of PpIX and TF.

[3] = test system: colorectal carcinoma cell line HCT116; assay: Cell uptake and imaging (fluorescence microscopy); format: cell-based
Description: Cancer cells were used to detect and compare cellular uptake of PpIX and PpIX-TF conjugate (referred to herein as TF01) in vitro. The cells were cultured in medium supplemented with 10% fetal bovine serum at 37° C. and 5% CO2. After incubating cells with PpIX-TF conjugate (TF01), images were viewed by confocal microscopy.
FIG. 9 depicts the fluorescence microscopic analysis of cellular uptake of recombinant TF in a colorectal carcinoma cell line HCT116.

[4] = Cell phototoxicity assay under different dosages of 635-nm laser excitation (FIG. 16); format: cell-based; settings: when laser dosage were increased (635-nm laser, 3 J/cm^2 to 18 J/cm^2)
Description: (§1) To determine cell viability under dark conditions, cells (1×10^4 cells/well) were seeded onto 96-well plates and incubated for 24 h at 37° C. After cell stabilization, the culture medium was replaced with 100 μl of culture medium containing free PpIX or PpIX-TF conjugate (referred to herein as TF01), followed by incubation for 24 h. The cells were then washed twice with serum-free medium and cell viability was evaluated by MTT assay after 48 h. To determine the in vitro phototoxicity after laser irradiation, cells (1×10^4 cells/well) were seeded onto 96-well plates and incubated for 24 h at 37° C. The cells were then treated with free PpIX or a PpIX-TF conjugate (TF01). After 24 h incubation, the cells were washed twice with serum-free medium and irradiated at a light intensity of 150 mW/cm^2 using 450 nm or 627 nm LED light source for 30 min or 10 mW/cm^2 using a 635-nm laser source for 5-30 min (3 J/cm^2 to 18 J/cm^2). The cell viability of irradiated cells was evaluated by MTT assay after 24 h of incubation.
When laser dosage were increased, the corresponding IC50 values of PpIX-TF conjugate (TF01) were decreased.

[5] = test system: liver cancer cell line SK-Hep-1; assay: Cellular localization with MitoTracker, LysoTracker and ER-Tracker; format: cell-based
Description: The Mitotracker, lysotracker and ER-tracker (Thermo Fisher Scientific) were used to label mitochondria, lysosome and endoplasmic reticulum (ER) respectively. Two measures of correlation, the Pearson correlation coefficient (PCC) and the Mander's overlap coefficient (MOC) were calculated as depicted in the table below.

[6] = test system: human hepatoma SK-HEP 1 xenograft; assay: In vivo PDT efficacy; settings: 400 mg/kg intravenously, followed by laser application (230 mW/cm^2, 260 J/cm^2, 635-nm); nude mice
Description: To test the in vivo PDT efficacy of PpIX-TF conjugate, nude mice bearing human hepatoma SK-HEP 1 xenograft were intravenously treated with PBS, 200 mg/kg or 400 mg/kg PpIX-TF conjugate (TF01) respectively (n=3-4 per group), followed by the laser application (at a light intensity 230 mW/cm^2, 260 J/cm^2, using a 635-nm laser source). Visible tumors were measured using two orthogonal measurements L and W (perpendicular to L), the volumes were calculated using the formula V=LW2/2 and recorded.

[7] = Solubility and dispersibility in aqueous buffer; format: physicochemical; settings: compared to PpIX in aqueous Tris-HCl buffer, 20 mM, pH 8.5
Description: Improvement in solubility and dispersibility of the PpIX-TF conjugate was compared to PpIX in aqueous Tris-HCl buffer, 20 mM, pH 8.5 (FIG. 6).

[8] = test system: SK-Hep-1 cell; assay: Soft agar colony-formation assay; format: cell-based; settings: 10 ug/ml, 3 J/cm^2, 635-nm laser source
Description: To estimate the anchorage-independent growth ability of cells treated by PpIX-TF conjugate (referred to herein as TF01), 3×10^4 cells of SK-Hep-1 cell were seeded in 35 mm dish and incubated for 24 h at 37° C. The cells were then treated with a PpIX-TF conjugate (TF01) or medium control. After 24 h incubation, the cells were washed twice with serum-free medium and irradiated at a light intensity of 10 mW/cm^2 using a 635-nm laser source for 5 min. Then, 5000 cells were suspended in 0.3% noble agar and cells were allowed to grow for another 2 weeks. Colonies were stained with 0.02% Giemsa Stain Solution, and documented by scanning.

[9] = Singlet oxygen / ROS generation by RNO bleaching; format: physicochemical; settings: relative to positive control methylene blue; RNO bleaching near 440 nm
Description: To determine singlet oxygen generation, singlet oxygen detection method was applied to a 3 ml aqueous solution containing the singlet oxygen generator, 50 µM of RNO and 8 mM of imidazole. The detection for absorption intensity of RNO near 440 nm was monitored to reflect the production of ROS by a UV-vis spectrophotometer after time intervals of laser exposure.

[10] = test system: HepG2; assay: Cell phototoxicity assay (MTT); format: cell-based; settings: concentration greater than about 25 μg/ml
Description: as §1
(§2) For each cancer cell line, measurements were performed in dark and in the presence of 450 nm blue laser light or 627 nm red light.

[11] = test system: HCT 116; assay: Cell phototoxicity assay (MTT); format: cell-based; settings: concentration greater than about 25 μg/ml
Description: as §1, §2

OO [H2O2, reference compound]
intracellular ROS generation ([1]; 100 uM, positive control, HCT116): increase

Batch 1: exemplary batch of PpIX-TF conjugate (TF01), molar ratio of PpIX to TF protein 0.690
emission properties ([2]; 5 mg/ml (approximately 53 μM PpIX) in Tris-HCl buffer 20 mM, pH 8.5, versus control 60 μM PpIX with 5% DMSO): greater

TF01: conjugate of PpIX and recombinant TF (globin 2αβ2 tetramer); PpIX non-covalently associated with the protein
cellular uptake / distribution of fluorescent signals [3]: widely distributed in the cytoplasm
IC50 values under different dosages of 635-nm laser excitation [4]: decreased
Mander's overlap coefficient (MOC) ([5]; Endoplasmic reticulum): 0.6908
Pearson correlation coefficient (PCC) ([5]; Endoplasmic reticulum): 0.6076
Mander's overlap coefficient (MOC) ([5]; Lysosome): 0.4866
Pearson correlation coefficient (PCC) ([5]; Lysosome): 0.4974
Mander's overlap coefficient (MOC) ([5]; Mitochondria): 0.4684
Pearson correlation coefficient (PCC) ([5]; Mitochondria): 0.4922
tumor volume [6]: tumor regression
solubility and dispersibility [7]: Improvement
cancer cell soft agar colony formation [8]: significantly inhibit
pH dependence of the emission intensity ([2]; 50 mM Tris-HCl or potassium phosphate buffer, λmax=625 nm): wide pH range
quantum yield of ROS [9]: almost double that of methylene blue
intracellular ROS generation ([1]; 50 um/ml (batch 2), approximately 0.71 uM PpIX, 635-nm laser 10 mW/cm^2 30 min, versus control PpIX 0.75 uM): greatly enhance
survival rates of the cells ([10]; irradiation 450 nm blue light): markedly decrease
survival rates of the cells ([10]; irradiation 627 nm red light): markedly decrease
survival rates of the cells ([11]; irradiation 450 nm blue light): markedly decrease
survival rates of the cells ([11]; irradiation 627 nm red light): markedly decrease
